Reference: US20100022491A1, “4-HYDROXY-2-OXO-2,3-DIHYDRO-1,3-BENZOTHIAZOL-7YL COMPOUNDS FOR MODULATION OF B2-ADRENORECEPTOR ACTIVITY” (ASTRAZENECA AB, priority 2006, published 2010)
Where a name gives a salt, the structure may show the parent alone.

How the values were obtained:
[1] = target: T1, recombinant human Dopamine Subtype D2s receptors (Homo sapiens, UniProt P14416); assay: Dopamine D2 selectivity binding assay ([3H]-spiperone); conditions: inhibition of [3H]-spiperone (0.16 nM) binding; for IC50: read-out: D2 bind pIC50 (converted)
T1 construct: purchased Perkin Elmer
T1 sequence (P14416 1-414 isoform P14416-2): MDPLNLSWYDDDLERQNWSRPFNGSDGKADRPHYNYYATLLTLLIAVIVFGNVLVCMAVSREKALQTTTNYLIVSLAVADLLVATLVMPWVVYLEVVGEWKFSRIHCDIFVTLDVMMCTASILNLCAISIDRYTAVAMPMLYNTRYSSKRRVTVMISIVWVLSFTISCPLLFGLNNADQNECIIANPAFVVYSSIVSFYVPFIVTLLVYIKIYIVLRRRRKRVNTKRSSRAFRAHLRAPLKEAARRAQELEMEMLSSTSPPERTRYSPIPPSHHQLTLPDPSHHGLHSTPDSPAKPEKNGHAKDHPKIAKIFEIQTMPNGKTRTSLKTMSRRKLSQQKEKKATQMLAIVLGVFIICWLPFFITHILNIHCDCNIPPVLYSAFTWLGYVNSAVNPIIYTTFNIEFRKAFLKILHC
Outline: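 Recombinant human D2s membranes incubated 2 h at room temperature with 0.16 nM [3H]-spiperone in HEPES/EDTA/NaCl/gelatin buffer, pH 7.4; 10 μM haloperidol defined non-specific binding. Filter-bound radioactivity counted after cold washes. pIC50 from 4-parameter logistic fit of NSB-corrected specific binding.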

Adrenergic β2 = target: T2, Adrenergic β2 (Homo sapiens, UniProt P07550); assay: Adrenergic β2 mediated cAMP production in H292 cells; type: cell-based; conditions: for EC50: read-out: β2 pEC50 (converted); for β2 Int Act: Intrinsic Activity as a fraction relative to the maximum activity determined for formoterol
T2 construct: Adherent H292 cells were removed from tissue culture flasks; endogenous in cells; host or cells: H292 cells
T2 sequence (P07550 whole entry): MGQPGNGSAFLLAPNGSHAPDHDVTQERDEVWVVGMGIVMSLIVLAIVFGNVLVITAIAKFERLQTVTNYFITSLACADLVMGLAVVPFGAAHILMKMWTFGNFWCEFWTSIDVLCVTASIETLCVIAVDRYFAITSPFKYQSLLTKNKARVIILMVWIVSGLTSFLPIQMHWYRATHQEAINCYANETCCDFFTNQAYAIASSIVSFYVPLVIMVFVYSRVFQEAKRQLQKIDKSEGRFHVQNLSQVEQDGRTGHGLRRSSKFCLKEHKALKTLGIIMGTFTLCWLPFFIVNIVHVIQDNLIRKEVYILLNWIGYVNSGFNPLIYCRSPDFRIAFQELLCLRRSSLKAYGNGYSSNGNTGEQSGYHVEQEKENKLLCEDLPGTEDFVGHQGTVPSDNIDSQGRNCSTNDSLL
Outline: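 H292 cells pretreated 10 min with rolipram (300 μM final), then exposed to agonist 60 min at room temperature in HEPES-buffered HBSS, 1.6% DMSO final. Lysate cAMP quantified by AlphaScreen against a cAMP standard curve; four-parameter fit gives pEC50 and intrinsic activity relative to formoterol maximum.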

[2] = target: T3, recombinant human adrenergic beta 1 receptors (Homo sapiens, UniProt P08588); assay: Adrenergic β1 selectivity binding assay ([125I]-Iodocyanopindolol); conditions: inhibition of [125I]-Iodocyanopindolol (0.036 nM) binding; for IC50: read-out: β1 bind p IC50 (converted)
T3 construct: purchased Euroscreen
T3 sequence (P08588 whole entry): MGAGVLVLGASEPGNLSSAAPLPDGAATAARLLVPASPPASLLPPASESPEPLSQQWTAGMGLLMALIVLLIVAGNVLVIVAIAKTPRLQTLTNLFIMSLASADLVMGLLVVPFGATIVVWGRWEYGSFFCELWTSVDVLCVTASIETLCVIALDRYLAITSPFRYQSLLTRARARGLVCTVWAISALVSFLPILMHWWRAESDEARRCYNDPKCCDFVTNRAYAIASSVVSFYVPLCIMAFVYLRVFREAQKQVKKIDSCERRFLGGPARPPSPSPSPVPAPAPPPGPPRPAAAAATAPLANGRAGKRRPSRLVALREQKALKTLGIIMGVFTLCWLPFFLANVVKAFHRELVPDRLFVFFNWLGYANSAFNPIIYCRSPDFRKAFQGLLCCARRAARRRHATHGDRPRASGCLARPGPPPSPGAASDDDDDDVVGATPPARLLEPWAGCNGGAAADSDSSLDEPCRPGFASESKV
Outline: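 Recombinant human β1 membranes in HEPES buffer pH 7.4 with 120 mM NaCl were incubated 2 hours at room temperature with 0.036 nM [^125I]-Iodocyanopindolol. Nonspecific binding defined by 10 μM propranolol; bound radioactivity counted after filtration. pIC50 from four-parameter logistic fit.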

[3] = H292 cells, cAMP by AlphaScreen, 60 minutes at room temperature, rolipram 300 μM

IC50 [1] [nM] | EC50 (Adrenergic β2; [3]) [nM] | β2 Int Act (Adrenergic β2) | IC50 [2] [µM] | Structure (SMILES) | D2 bind pIC50 [1] | β2 pEC50 (Adrenergic β2; [3]) | β1 bind p IC50 [2]
50.1 | 79.4 | 0.86 | 2.51 | O=C(CCNCCc1cccc(C(F)(F)F)c1)N(CCNCCc1ccc(O)c2[nH]c(=O)sc12)C1CCCCCC1 [Example 82, N^1-Cycloheptyl-N^1-(2-{[2-(4-hydroxy-2-oxo-2,3-dihydro-1,3-benzothiazol-7-yl)ethyl]amino}ethyl)-N^3-{2-[3-(trifluoromethyl)phenyl]ethyl}-β-alaninamide bis-trifluoroacetic acid salt] | – | – | –
398 | 10 | 0.91 | 0.631 | O=C(CCNC[C@H](O)c1ccccc1)N(CCNCCc1ccc(O)c2[nH]c(=O)sc12)C1CCCCC1 [Example 75, N^1-Cyclohexyl-N^1-(2-{[2-(4-hydroxy-2-oxo-2,3-dihydro-1,3-benzothiazol-7-yl)ethyl]amino}ethyl)-N^3-[(2R)-2-hydroxy-2-phenylethyl]-β-alaninamide bis-trifluoroacetic acid salt] | – | – | –
79.4 | 79.4 | 0.23 | 1.26 | CCCC[C@H](C)N(CCNCCc1ccc(O)c2[nH]c(=O)sc12)C(=O)CCNCCc1ccccc1 [Example 102, N-(2-{[2-(4-Hydroxy-2-oxo-2,3-dihydro-1,3-benzothiazol-7-yl)ethyl]amino}ethyl)-N-[(1S)-1-methylpentyl]-N^3-(2-phenylethyl)-β-alaninamide bis-trifluoroacetic acid salt] | – | – | –
200 | 316 | 0.70 | 6.31 | CCCC(CCC)N(CCNCCc1ccc(O)c2[nH]c(=O)sc12)C(=O)CCNCCc1ccc(F)cc1 [Example 64, N^3-[2-(4-Fluorophenyl)ethyl]-N^1-(2-{[2-(4-hydroxy-2-oxo-2,3-dihydro-1,3-benzothiazol-7-yl)ethyl]amino}ethyl)-N^1-(1-propylbutyl)-β-alaninamide bis-trifluoroacetic acid salt] | – | – | –
158 | 2.51 | 0.84 | 3.16 | O=C(CCNCCc1cc(F)ccc1F)N(CCNCCc1ccc(O)c2[nH]c(=O)sc12)C1CCCCC1 [Example 79, N^1-Cyclohexyl-N^3-[2-(2,5-difluorophenyl)ethyl]-N^1-(2-{[2-(4-hydroxy-2-oxo-2,3-dihydro-1,3-benzothiazol-7-yl)ethyl]amino}ethyl)-β-alaninamide bis-trifluoroacetic acid salt] | – | – | –
316 | 6.31 | 0.86 | 1.58 | CC(CN(C(=O)CCNCCc1ccccc1)C1CCCCC1)NCCc1ccc(O)c2[nH]c(=O)sc12 (stereo not drawn) [Example 105, N-Cyclohexyl-N-(2-{[2-(4-hydroxy-2-oxo-2,3-dihydro-1,3-benzothiazol-7-yl)ethyl]amino}propyl)-N^3-(2-phenylethyl)-β-alaninamide bis-trifluoroacetic acid salt] | – | – | –

More lines, now with the values behind:

Structure (SMILES) | IC50 [1] [nM] | EC50 (Adrenergic β2; [3]) [nM] | β2 Int Act (Adrenergic β2) | IC50 [2] [µM] | D2 bind pIC50 [1] | β2 pEC50 (Adrenergic β2; [3]) | β1 bind p IC50 [2]
O=C(CCNCCc1ccc(Cl)c(Cl)c1)N(CCNCCc1ccc(O)c2[nH]c(=O)sc12)C1CCOCC1 [Example 94, N^3-[2-(3,4-Dichlorophenyl)ethyl]-N-(2-{[2-(4-hydroxy-2-oxo-2,3-dihydro-1,3-benzothiazol-7-yl)ethyl]amino}ethyl)-N-(tetrahydro-2H-pyran-4-yl)-β-alaninamide dihydrobromide salt] | – | – | – | – | 6.1 | 8.1 | 5.7
O=C(CCNCCc1cccc(Cl)c1)N(CCNCCc1ccc(O)c2[nH]c(=O)sc12)C1CCOCC1 [Example 22, N^3-[2-(3-Chlorophenyl)ethyl]-N-(2-{[2-(4-hydroxy-2-oxo-2,3-dihydro-1,3-benzothiazol-7-yl)ethyl]amino}ethyl)-N-(tetrahydro-2H-pyran-4-yl)-β-alaninamide bis-trifluoroacetic acid salt] | 7940 | 2.51 | 0.96 | 3.98 | – | – | –
CC(C)(CN(CCNCCc1ccc(O)c2[nH]c(=O)sc12)C(=O)CCNCCc1ccccc1)c1ccccc1 [Example 45, N^1-(2-{[2-(4-Hydroxy-2-oxo-2,3-dihydro-1,3-benzothiazol-7-yl)ethyl]amino}ethyl)-N^1-(2-methyl-2-phenylpropyl)-N^3-(2-phenylethyl)-β-alaninamide bis-trifluoroacetic acid salt] | 251 | 25.1 | 0.55 | 1.26 | – | – | –
O=C(CCNCCc1ccc(F)cc1F)N(CCNCCc1ccc(O)c2[nH]c(=O)sc12)C1CCCCCC1 [Example 55, N^1-Cycloheptyl-N^3-[2-(2,4-difluorophenyl)ethyl]-N^1-(2-{[2-(4-hydroxy-2-oxo-2,3-dihydro-1,3-benzothiazol-7-yl)ethyl]amino}ethyl)-β-alaninamide bis-trifluoroacetic acid salt] | 20 | 10 | 0.81 | 2.51 | – | – | –
O=C(CCNCCc1ccc(O)cc1)N(CCNCCc1ccc(O)c2[nH]c(=O)sc12)C1CCCCC1 [Example 34, N-Cyclohexyl-N-(2-{[2-(4-hydroxy-2-oxo-2,3-dihydro-1,3-benzothiazol-7-yl)ethyl]amino}ethyl)-N^3-[2-(4-hydroxyphenyl)ethyl]-β-alaninamide bis-trifluoroacetic acid salt] | 398 | 2 | 0.75 | 7.94 | – | – | –
CC(C)(C)CN(CCNCCc1ccc(O)c2[nH]c(=O)sc12)C(=O)CCNCCc1ccccc1 [Example 6, N-(2,2-Dimethylpropyl)-N-(2-{[2-(4-hydroxy-2-oxo-2,3-dihydro-1,3-benzothiazol-7-yl)ethyl]amino}ethyl)-N^3-(2-phenylethyl)-β-alaninamide bis-trifluoroacetic acid salt] | 200 | 2 | 0.89 | 0.794 | – | – | –
O=C(CCNCCc1cccs1)N(CCNCCc1ccc(O)c2[nH]c(=O)sc12)C1CCCCC1 [Example 35, N-Cyclohexyl-N-(2-{[2-(4-hydroxy-2-oxo-2,3-dihydro-1,3-benzothiazol-7-yl)ethyl]amino}ethyl)-N^3-[2-(2-thienyl)ethyl]-β-alaninamide bis-trifluoroacetic acid salt] | 316 | 3.98 | 0.91 | 3.98 | – | – | –
O=C(CCNCCc1cccc(Cl)c1)N(CCNCCc1ccc(O)c2[nH]c(=O)sc12)C1CCCCCC1 [Example 50, N^3-[2-(3-Chlorophenyl)ethyl]-N^1-cycloheptyl-N^1-(2-{[2-(4-hydroxy-2-oxo-2,3-dihydro-1,3-benzothiazol-7-yl)ethyl]amino}ethyl)-β-alaninamide bis-trifluoroacetic acid salt] | 31.6 | 1.26 | 0.91 | 0.794 | – | – | –
O=C(CCNCCc1cccc(F)c1F)N(CCNCCc1ccc(O)c2[nH]c(=O)sc12)C1CCCCCC1 [Example 56, N^1-Cycloheptyl-N^3-[2-(2,3-difluorophenyl)ethyl]-N^1-(2-{[2-(4-hydroxy-2-oxo-2,3-dihydro-1,3-benzothiazol-7-yl)ethyl]amino}ethyl)-β-alaninamide bis-trifluoroacetic acid salt] | 31.6 | 5.01 | 0.86 | 3.16 | – | – | –
O=C(CCNCCc1ccccc1Cl)N(CCNCCc1ccc(O)c2[nH]c(=O)sc12)C1CCCCC1 [Example 17, N^3-[2-(2-Chlorophenyl)ethyl]-N-cyclohexyl-N-(2-{[2-(4-hydroxy-2-oxo-2,3-dihydro-1,3-benzothiazol-7-yl)ethyl]amino}ethyl)-β-alaninamide bis-trifluoroacetic salt] | 158 | 1.58 | 0.90 | 3.16 | – | – | –
CC(C)(C)CN(CCNCCc1ccc(O)c2[nH]c(=O)sc12)C(=O)CCNCCc1ccc(Cl)cc1 [Example 8, N^3-[2-(4-Chlorophenyl)ethyl]-N-(2,2-dimethylpropyl)-N-(2-{[2-(4-hydroxy-2-oxo-2,3-dihydro-1,3-benzothiazol-7-yl)ethyl]amino}ethyl)-β-alaninamide bis-trifluoroacetic acid salt] | 398 | 10 | 0.73 | 5.01 | – | – | –
O=C(CCNCCc1ccc(Cl)cc1)N(CCNCCc1ccc(O)c2[nH]c(=O)sc12)C1CCCC1 [Example 28, N^3-[2-(4-Chlorophenyl)ethyl]-N-cyclopentyl-N-(2-{[2-(4-hydroxy-2-oxo-2,3-dihydro-1,3-benzothiazol-7-yl)ethyl]amino}ethyl)-β-alaninamide bis-trifluoroacetic acid salt] | 398 | 10 | 0.87 | 6.31 | – | – | –
